US20260070945A1, “MACROCYCLIC IMMUNOMODULATORS” (Bristol-Myers Squibb Company, priority 2022, published 2026)
Where a SMILES comes first, the peptide text is derived from it. Bridges are numbered along the chain shown (N, C = ends). [ ]: non-standard residue; d: D form. The star is where a group is joined. ξ: configuration not given here. Phe(4-CONH2) = NC(=O)c1ccc(C[C@H](N)C(=O)O)cc1; Phe(4-COOH) = N[C@@H](Cc1ccc(C(=O)O)cc1)C(=O)O; Bip = N[C@@H](Cc1ccc(-c2ccccc2)cc1)C(=O)O; Phe(3-Me) = Cc1cccc(C[C@H](N)C(=O)O)c1; Val(3-OH) = CC(C)(O)[C@H](N)C(=O)O; 4Pal = N[C@@H](Cc1ccncc1)C(=O)O; Cha = N[C@@H](CC1CCCCC1)C(=O)O; Ile(3ξ) = CCC(C)[C@H](N)C(=O)O; Thr(3ξ) = CC(O)[C@H](N)C(=O)O; Carboxymethyl = O=C(O)C*; NMeA = CN[C@@H](C)C(=O)O; Aun = NCCCCCCCCCCC(=O)O; Dab = NCC[C@H](N)C(=O)O; AEEA = NCCOCCOCC(=O)O

These molecules were tested against T1, PD-1/PD-L1 interaction (PE-labeled human PD-L1-Ig binding to Jurkat cell line over-expressing human PD-1) (Homo sapiens, UniProt Q15116) (assay: Jurkat-PD-1 Cell Binding High-Content Screening Assay (CBA)). Conditions: Jurkat-hPD-1 cells, PE-labeled PD-L1-Ig 20 nM final; read-out: Jurkat HPD1 PDL1 IC50.
T1 construct: expressed in transfected cells; host or cells: Jurkat
T1 sequence (Q15116 25-288): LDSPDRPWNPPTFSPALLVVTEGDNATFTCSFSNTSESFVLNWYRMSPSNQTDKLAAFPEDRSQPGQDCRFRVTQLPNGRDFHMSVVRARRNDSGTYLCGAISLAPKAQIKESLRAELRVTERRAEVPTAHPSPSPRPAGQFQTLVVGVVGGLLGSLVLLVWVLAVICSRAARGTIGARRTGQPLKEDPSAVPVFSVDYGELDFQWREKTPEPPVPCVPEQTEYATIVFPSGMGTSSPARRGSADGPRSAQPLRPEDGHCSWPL
In short: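 Compound is added first to the PD-1-expressing Jurkat cells and held 2 h at 37 °C in serum-containing DMEM. The fluorescent PD-L1 fusion follows at 20 nM final for 1 h. Fixed, Hoechst-stained cells are then imaged for bound label.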

| IC50 | SMILES |
| --- | --- |
| 32.1 nM | Cc1cccc(C[C@@H]2NC(=O)[C@H](CC(=O)O)NC(=O)[C@H](Cc3ccc(OCC(=O)O)cc3)NC(=O)[C@H](C(C)O)NC(=O)CSC[C@@H](C(=O)N[C@@H](CCN)C(=O)NCCOCCOCC(=O)NCCCCCCCCCCC(=O)O)NC(=O)[C@H](CCC(=O)O)NC(=O)[C@H](C(C)(C)O)NC(=O)[C@H](CC3CCCCC3)NC(=O)[C@H](CCN)NC(=O)[C@@H](CC(C)C)NC(=O)[C@H](C)N(C)C(=O)[C@H](Cc3ccc(OCC(=O)O)cc3)NC(=O)[C@H](Cc3ccc(-c4ccccc4)cc3)NC(=O)[C@H](Cc3ccc(C(=O)O)cc3)NC2=O)c1 (stereo partly drawn) [Example 2473] ({CH2CO}-[Thr(3ξ)]Y(Carboxymethyl)D[Phe(3-Me)][Phe(4-COOH)][Bip]Y(Carboxymethyl)[NMeA][dL][Dab][Cha][Val(3-OH)]EC[Dab][AEEA][Aun]-OH; thioether N-14) |
| 24.9 nM | Cc1cccc(C[C@@H]2NC(=O)[C@H](CC(=O)O)NC(=O)[C@H](Cc3ccc(OCC(=O)O)cc3)NC(=O)[C@H](C(C)O)NC(=O)CSC[C@@H](C(=O)N[C@@H](CCN)C(=O)NCCOCCOCC(=O)NCCCCCCCCCCC(=O)O)NC(=O)[C@H](CC(N)=O)NC(=O)[C@H](C(C)(C)O)NC(=O)[C@H](CC3CCCCC3)NC(=O)[C@H](CCN)NC(=O)[C@@H](CC(C)C)NC(=O)[C@H](C)N(C)C(=O)[C@H](Cc3ccc(OCC(=O)O)cc3)NC(=O)[C@H](Cc3ccc(-c4ccccc4)cc3)NC(=O)[C@H](Cc3ccc(C(=O)O)cc3)NC2=O)c1 (stereo partly drawn) [Example 2474] ({CH2CO}-[Thr(3ξ)]Y(Carboxymethyl)D[Phe(3-Me)][Phe(4-COOH)][Bip]Y(Carboxymethyl)[NMeA][dL][Dab][Cha][Val(3-OH)]NC[Dab][AEEA][Aun]-OH; thioether N-14) |
| 18.9 nM | Cc1cccc(C[C@@H]2NC(=O)[C@H](CC(=O)O)NC(=O)[C@H](Cc3ccc(OCC(=O)O)cc3)NC(=O)[C@H](C(C)O)NC(=O)CSC[C@@H](C(=O)N[C@@H](CCN)C(=O)NCCOCCOCC(=O)NCCCCCCCCCCC(=O)O)NC(=O)[C@H](CCC(N)=O)NC(=O)[C@H](C(C)C)NC(=O)[C@H](CC3CCCCC3)NC(=O)[C@H](CCN)NC(=O)[C@@H](CC(C)C)NC(=O)[C@H](C)N(C)C(=O)[C@H](Cc3ccc(OCC(=O)O)cc3)NC(=O)[C@H](Cc3ccc(-c4ccccc4)cc3)NC(=O)[C@H](Cc3ccc(C(=O)O)cc3)NC2=O)c1 (stereo partly drawn) [Example 2475] ({CH2CO}-[Thr(3ξ)]Y(Carboxymethyl)D[Phe(3-Me)][Phe(4-COOH)][Bip]Y(Carboxymethyl)[NMeA][dL][Dab][Cha]VQC[Dab][AEEA][Aun]-OH; thioether N-14) |

Same assay, conditions: PE-labeled PD-L1-Ig 20 nM final, Jurkat-hPD-1 cells; read-out: Jurkat HPD1 PDL1 IC50

| SMILES | IC50 |
| --- | --- |
| Cc1cccc(C[C@@H]2NC(=O)[C@H](CC(=O)O)NC(=O)[C@H](Cc3ccc(OCC(=O)O)cc3)NC(=O)[C@H](CCN)NC(=O)CSC[C@@H](C(=O)N[C@@H](CCN)C(=O)NCCCCCCCCCCC(=O)O)NC(=O)[C@H](CO)NC(=O)[C@H](C(C)(C)O)NC(=O)[C@H](CC3CCCCC3)NC(=O)[C@H](Cc3c[nH]cn3)NC(=O)[C@@H](CC(C)C)NC(=O)[C@H](C)N(C)C(=O)[C@H](Cc3ccc(OCC(=O)O)cc3)NC(=O)[C@H](Cc3ccc(-c4ccccc4)cc3)NC(=O)[C@H](Cc3ccc(OCC(=O)O)cc3)NC2=O)c1 [Example 2465] ({CH2CO}-[Dab]Y(Carboxymethyl)D[Phe(3-Me)]Y(Carboxymethyl)[Bip]Y(Carboxymethyl)[NMeA][dL]H[Cha][Val(3-OH)]SC[Dab][Aun]-OH; thioether N-14) | 70.2 nM |
| Cc1cccc(C[C@@H]2NC(=O)[C@H](CC(=O)O)NC(=O)[C@H](Cc3ccc(OCC(=O)O)cc3)NC(=O)[C@H](Cc3ccncc3)NC(=O)CSC[C@@H](C(=O)N[C@@H](CCN)C(=O)NCCCCCCCCCCC(=O)O)NC(=O)[C@H](CO)NC(=O)[C@H](C(C)(C)O)NC(=O)[C@H](CC3CCCCC3)NC(=O)[C@H](Cc3c[nH]cn3)NC(=O)[C@@H](CC(C)C)NC(=O)[C@H](C)N(C)C(=O)[C@H](Cc3ccc(OCC(=O)O)cc3)NC(=O)[C@H](Cc3ccc(-c4ccccc4)cc3)NC(=O)[C@H](Cc3ccc(OCC(=O)O)cc3)NC2=O)c1 [Example 2466] ({CH2CO}-[4Pal]Y(Carboxymethyl)D[Phe(3-Me)]Y(Carboxymethyl)[Bip]Y(Carboxymethyl)[NMeA][dL]H[Cha][Val(3-OH)]SC[Dab][Aun]-OH; thioether N-14) | 54.8 nM |
| Cc1cccc(C[C@@H]2NC(=O)[C@H](CC(=O)O)NC(=O)[C@H](Cc3ccc(OCC(=O)O)cc3)NC(=O)[C@H](Cc3ccncc3)NC(=O)CSC[C@@H](C(=O)N[C@@H](CCN)C(=O)NCCCCCCCCCCC(=O)O)NC(=O)[C@H](Cc3cnc[nH]3)NC(=O)[C@H](C(C)(C)O)NC(=O)[C@H](CC3CCCCC3)NC(=O)[C@H](CCN)NC(=O)[C@@H](CC(C)C)NC(=O)[C@H](C)N(C)C(=O)[C@H](Cc3ccc(OCC(=O)O)cc3)NC(=O)[C@H](Cc3ccc(-c4ccccc4)cc3)NC(=O)[C@H](Cc3ccc(OCC(=O)O)cc3)NC2=O)c1 [Example 2467] ({CH2CO}-[4Pal]Y(Carboxymethyl)D[Phe(3-Me)]Y(Carboxymethyl)[Bip]Y(Carboxymethyl)[NMeA][dL][Dab][Cha][Val(3-OH)]HC[Dab][Aun]-OH; thioether N-14) | 161 nM |

Next, values leading:

| IC50 | SMILES |
| --- | --- |
| 46 nM | Cc1cccc(C[C@@H]2NC(=O)[C@H](CC(=O)O)NC(=O)[C@H](Cc3ccc(C(=O)O)cc3)NC(=O)[C@H](Cc3ccncc3)NC(=O)CSC[C@@H](C(=O)NCCOCCOCC(=O)NCCCCCCCCCCC(=O)O)NC(=O)[C@H](Cc3cnc[nH]3)NC(=O)[C@H](C(C)(C)O)NC(=O)[C@H](CC3CCCCC3)NC(=O)[C@H](CCN)NC(=O)[C@@H](CC(C)C)NC(=O)[C@H](C)N(C)C(=O)[C@H](Cc3ccc(OCC(=O)O)cc3)NC(=O)[C@H](Cc3ccc(-c4ccccc4)cc3)NC(=O)[C@H](Cc3ccc(OCC(=O)O)cc3)NC2=O)c1 [Example 2464] ({CH2CO}-[4Pal][Phe(4-COOH)]D[Phe(3-Me)]Y(Carboxymethyl)[Bip]Y(Carboxymethyl)[NMeA][dL][Dab][Cha][Val(3-OH)]HC[AEEA][Aun]-OH; thioether N-14) |
| 22.3 nM | Cc1cccc(C[C@@H]2NC(=O)[C@H](CC(=O)O)NC(=O)[C@H](Cc3ccc(OCC(=O)O)cc3)NC(=O)[C@H](C(C)O)NC(=O)CSC[C@@H](C(=O)N[C@@H](CCN)C(=O)NCCOCCOCC(=O)NCCCCCCCCCCC(=O)O)NC(=O)[C@H](C(C)O)NC(=O)[C@H](C(C)(C)O)NC(=O)[C@H](CC3CCCCC3)NC(=O)[C@H](CCN)NC(=O)[C@@H](CC(C)C)NC(=O)[C@H](C)N(C)C(=O)[C@H](Cc3ccc(OCC(=O)O)cc3)NC(=O)[C@H](Cc3ccc(-c4ccccc4)cc3)NC(=O)[C@H](Cc3ccc(OCC(=O)O)cc3)NC2=O)c1 (stereo partly drawn) [Example 2468] ({CH2CO}-[Thr(3ξ)]Y(Carboxymethyl)D[Phe(3-Me)]Y(Carboxymethyl)[Bip]Y(Carboxymethyl)[NMeA][dL][Dab][Cha][Val(3-OH)][Thr(3ξ)]C[Dab][AEEA][Aun]-OH; thioether N-14) |
| 25.3 nM | Cc1cccc(C[C@@H]2NC(=O)[C@H](CC(=O)O)NC(=O)[C@H](Cc3ccc(OCC(=O)O)cc3)NC(=O)[C@H](C(C)O)NC(=O)CSC[C@@H](C(=O)N[C@@H](CCN)C(=O)NCCOCCOCC(=O)NCCCCCCCCCCC(=O)O)NC(=O)[C@H](CO)NC(=O)[C@H](C(C)(C)O)NC(=O)[C@H](CC3CCCCC3)NC(=O)[C@H](CCN)NC(=O)[C@@H](CC(C)C)NC(=O)[C@H](C)N(C)C(=O)[C@H](Cc3ccc(OCC(=O)O)cc3)NC(=O)[C@H](Cc3ccc(-c4ccccc4)cc3)NC(=O)[C@H](Cc3ccc(OCC(=O)O)cc3)NC2=O)c1 (stereo partly drawn) [Example 2469] ({CH2CO}-[Thr(3ξ)]Y(Carboxymethyl)D[Phe(3-Me)]Y(Carboxymethyl)[Bip]Y(Carboxymethyl)[NMeA][dL][Dab][Cha][Val(3-OH)]SC[Dab][AEEA][Aun]-OH; thioether N-14) |
| 8.7 nM | Cc1cccc(C[C@@H]2NC(=O)[C@H](CC(=O)O)NC(=O)[C@H](Cc3ccc(OCC(=O)O)cc3)NC(=O)[C@H](C(C)O)NC(=O)CSC[C@@H](C(=O)N[C@@H](CCN)C(=O)NCCOCCOCC(=O)NCCCCCCCCCCC(=O)O)NC(=O)[C@H](Cc3cnc[nH]3)NC(=O)[C@H](C(C)(C)O)NC(=O)[C@H](CC3CCCCC3)NC(=O)[C@H](CCN)NC(=O)[C@@H](CC(C)C)NC(=O)[C@H](C)N(C)C(=O)[C@H](Cc3ccc(OCC(=O)O)cc3)NC(=O)[C@H](Cc3ccc(-c4ccccc4)cc3)NC(=O)[C@H](Cc3ccc(OCC(=O)O)cc3)NC2=O)c1 (stereo partly drawn) [Example 2470] ({CH2CO}-[Thr(3ξ)]Y(Carboxymethyl)D[Phe(3-Me)]Y(Carboxymethyl)[Bip]Y(Carboxymethyl)[NMeA][dL][Dab][Cha][Val(3-OH)]HC[Dab][AEEA][Aun]-OH; thioether N-14) |
| 9.3 nM | CCC(C)[C@@H]1NC(=O)[C@H](Cc2ccc(-c3ccccc3)cc2)NC(=O)[C@H](Cc2ccc(C(N)=O)cc2)NC(=O)[C@H](Cc2cccc(C)c2)NC(=O)[C@H](CC(=O)O)NC(=O)[C@H](Cc2ccc(OCC(=O)O)cc2)NC(=O)[C@H](C(C)O)NC(=O)CSC[C@@H](C(=O)N[C@@H](CCN)C(=O)NCCOCCOCC(=O)NCCCCCCCCCCC(=O)O)NC(=O)[C@H](C(C)O)NC(=O)[C@H](C(C)(C)O)NC(=O)[C@H](CC2CCCCC2)NC(=O)[C@H](CCN)NC(=O)[C@@H](CC(C)C)NC(=O)[C@H](C)N(C)C1=O (stereo partly drawn) [Example 2471] ({CH2CO}-[Thr(3ξ)]Y(Carboxymethyl)D[Phe(3-Me)][Phe(4-CONH2)][Bip][Ile(3ξ)][NMeA][dL][Dab][Cha][Val(3-OH)][Thr(3ξ)]C[Dab][AEEA][Aun]-OH; thioether N-14) |
